Data published in PubChem BioAssay AID463206 (Broad Institute, 2010).
Active and inactive are the calls of the source.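 How the source made its calls: active means caspase luminescence falls with dose and the half-maximal concentration AC50 from the fitted curve is at or below a set limit; inconclusive means flat fit at 30 to 70% signal loss, or invalid fit; inactive means AC50 above the limit, or signal rises instead.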

What follows are compounds tested on INS-1E cytokine-induced caspase-3/7, Caspase-Glo luminescence, 48 h (assay: suppression of cytokine-driven beta-cell apoptosis – INS-1E rat cells, luminescence, orthogonal assay for beta-cell apoptosis protection project, dose response (AID 463206)).

Row | Structure (SMILES) | AC50
1 | Cc1ccc(C)c(NC(=O)/C(C#N)=C/c2cn(CC(=O)NCc3ccco3)c3ccccc23)c1 | > 26 µM (inactive)
2 | Cc1ccc(Nc2c(-c3ccccn3)nc3ccc(C)cn23)cc1 | > 26 µM (inactive)
3 | O=C(NNC(=O)c1ccccc1OCc1ccc(F)cc1)c1ccccc1O | > 26 µM (inactive)
4 | O=S(=O)(c1cccs1)N1CCN(CC(O)COc2cc(Cl)ccc2Cl)CC1 (configuration not stated) | > 26 µM (inactive)
5 | CCc1cc[n+](C2=C([O-])c3ccccc3C(=O)/C2=N\S(=O)(=O)c2cccs2)cc1 | > 26 µM (inactive)
6 | CCOc1ccc(Nc2nc(Cc3nnc(SCC(=O)c4ccc(C)c(C)c4)o3)cs2)cc1 | > 26 µM (inactive)
7 | Oc1c(CN2CCN(c3ccccc3)CC2)cc(Br)c2cccnc12 | > 26 µM (inactive)
8 | Oc1[nH]c(N=C2N=c3ccccc3=N2)c2ccccc12 | > 26 µM (inactive)
9 | Cc1ccc(C#CC[N+]2(CC#Cc3ccc(C)cc3)CCCCC2)cc1 | > 26 µM (inactive)
10 | CCN1CCN(Cc2ccc(NC(=O)c3cc(NC(=O)c4cnn(-c5ccccc5)c4N)cc(OC)c3)cc2C(F)(F)F)CC1 | > 26 µM (inactive)
11 | COc1ccc(-c2c[n+](CC(=O)OC3CC(C)CCC3C(C)C)c3n2CCC3)cc1 (configuration not stated) | > 26 µM (inactive)
12 | CCc1ccc(S(=O)(=O)/N=C2/C=C(Sc3ncn[nH]3)C(=O)c3ccccc32)cc1 | > 26 µM (inactive)
13 | C/C(=N\NC(=O)c1ccc(Cl)c(Cl)c1)c1ccccn1 | > 26 µM (inactive)
14 | O=C(OCn1ncc(Br)c(Br)c1=O)c1ccc(F)cc1 | > 26 µM (inactive)
15 | CCOC(=O)/C(=C\c1ccc(OC(F)F)cc1)C1=Nn2c(nnc2-c2ccc(Cl)cc2)SC1 | > 26 µM (inactive)
16 | Cc1ccc2nc(-c3ccc(-c4cccc(Cl)c4)cc3)c(NCc3ccccc3)n2c1 | > 26 µM (inactive)
17 | O=C(Nc1cccnc1)c1cccnc1 | > 26 µM (inactive)
18 | O=C(O)CCCC(=O)Nc1ccc(C(=O)NCc2cccnc2)cc1 | > 26 µM (inactive)
19 | CCCC(=O)NC(c1ccc(Cl)cc1)c1ccc2cccnc2c1O (configuration not stated) | > 26 µM (inactive)

Row | Structure (SMILES) | AC50
20 | O=c1cc(CSc2ccc(Cl)cc2)nc(-c2ccccn2)[nH]1 | > 26 µM (inactive)
21 | COc1ccccc1NC(=O)Cn1cc(C(=O)c2ccco2)c2ccccc21 | > 26 µM (inactive)
22 | CCn1c(C)nc2cc(C(=O)N/N=C/c3cccc(O)c3O)ccc21 | > 26 µM (inactive)
23 | CC(=O)N1CCN(c2ccc(Oc3ccc([N+](=O)[O-])c(C(F)(F)F)c3)cc2)CC1 | > 26 µM (inactive)
24 | O=C(N/N=C/c1ccccc1O)C1CC(=O)N(c2ccc(Cl)cc2)C1 (configuration not stated) | > 26 µM (inactive)
25 | Cn1c(SCC(=O)N/N=C/c2ccc([N+](=O)[O-])s2)nnc1-c1ccc(Cl)cc1 | > 26 µM (inactive)
26 | CCn1cc(/C=C/c2cc[n+](C)cc2)c2ccccc21 | > 26 µM (inactive)
27 | Cc1ccc(S(=O)(=O)Nc2ccccc2C(=O)Nc2nc(-c3ccc(F)cc3)cs2)cc1 | > 26 µM (inactive)
28 | Cc1ccc(S(=O)(=O)/N=C2/C=C(Sc3ncn[nH]3)C(=O)c3ccccc32)cc1 | > 26 µM (inactive)
29 | O=C(c1ccc2c(c1)[nH]c(=S)n1c3ccccc3nc21)N1CCN(c2cccc(Cl)c2)CC1 | > 26 µM (inactive)
30 | CC#CC[N+](C)(C)CCCCCCCC | > 26 µM (inactive)
31 | COc1ccc([N+](=O)[O-])c(S(=O)(=O)c2ccccc2)n1 | > 26 µM (inactive)
32 | O=C(Nc1cccc(NC(=O)c2cc([N+](=O)[O-])ccc2Cl)n1)c1cc([N+](=O)[O-])ccc1Cl | 3.73 µM
33 | COc1ccccc1NCC(=O)N1CCN(S(=O)(=O)c2ccccc2)CC1 | > 26 µM (inactive)
34 | COc1ccc(S(=O)(=O)Nc2ccc3oc(C)c(C(C)=O)c3c2)cc1 | 22.6 µM
35 | COc1ccc(C(=O)N/N=C/c2sc3ccccc3c2O)cc1 | > 26 µM (inactive)
36 | O=C(NCC#CCSc1nnc(-c2cccc3ccccc23)o1)c1cccs1 | > 26 µM (inactive)
37 | CC(C)C[C@H]1CN=C(Nc2ccccc2)N1CCc1ccc(F)cc1 | > 12 µM (inactive)
